Test results: paper PMC12775434, “Ultra-large virtual screening unveils potent agonists of the neuromodulatory orphan receptor GPR139” (Nature Communications, 2025)
Several values for one entry are separate records, joined by “and”; a condition that tells them apart may be missing. Equal values may be shown once.

Tests used:
Assay type in all cases: cell-based
GPR139 [1] = molecular target: T1, GPR139 (Homo sapiens, UniProt Q6DWJ6); assay: Ca2+ mobilization assay, agonist mode, stable GPR139-CHOk1 cell line; settings: for change in potency with larger substituents on the thiophene ring: Ca2+ mobilization; for EC50 / Emax: Supplementary Table 2, mean ± SEM; for EC50: read-out: pEC50 Ca2+ (converted); for Emax: normalized to Lundbeck Cmp 1a, read-out: Emax (%) Ca2+
T1 sequence (Q6DWJ6 1-353): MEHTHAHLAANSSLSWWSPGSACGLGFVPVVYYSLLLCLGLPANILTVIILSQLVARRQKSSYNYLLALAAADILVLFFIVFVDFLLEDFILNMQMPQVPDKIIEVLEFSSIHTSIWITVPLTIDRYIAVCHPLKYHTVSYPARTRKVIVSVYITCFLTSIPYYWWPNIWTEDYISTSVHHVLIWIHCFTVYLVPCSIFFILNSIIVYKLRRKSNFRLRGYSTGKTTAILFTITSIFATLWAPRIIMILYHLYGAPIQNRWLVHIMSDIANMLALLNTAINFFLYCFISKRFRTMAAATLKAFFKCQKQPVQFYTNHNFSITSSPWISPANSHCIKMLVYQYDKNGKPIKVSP
Summary of the method: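 Agonist activity of compounds is assessed in stably transfected CHO-K1 cells using the calcium dye Fluo-4 at 37 °C in HEPES-buffered HBSS (pH 7.4). Efficacy is expressed relative to the reference agonist Lundbeck Cmp 1a, set as 100%.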

[2] = molecular target: T2, human muscarinic acetylcholine M1 receptor (M1R) (Homo sapiens, UniProt P11229); assay: Ca2+ mobilization counter-screen in M1R-CHOk1 cells; settings: individual replicates (Supplementary Figure 5);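 note: 10 µM test compound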
T2 sequence (P11229 1-460): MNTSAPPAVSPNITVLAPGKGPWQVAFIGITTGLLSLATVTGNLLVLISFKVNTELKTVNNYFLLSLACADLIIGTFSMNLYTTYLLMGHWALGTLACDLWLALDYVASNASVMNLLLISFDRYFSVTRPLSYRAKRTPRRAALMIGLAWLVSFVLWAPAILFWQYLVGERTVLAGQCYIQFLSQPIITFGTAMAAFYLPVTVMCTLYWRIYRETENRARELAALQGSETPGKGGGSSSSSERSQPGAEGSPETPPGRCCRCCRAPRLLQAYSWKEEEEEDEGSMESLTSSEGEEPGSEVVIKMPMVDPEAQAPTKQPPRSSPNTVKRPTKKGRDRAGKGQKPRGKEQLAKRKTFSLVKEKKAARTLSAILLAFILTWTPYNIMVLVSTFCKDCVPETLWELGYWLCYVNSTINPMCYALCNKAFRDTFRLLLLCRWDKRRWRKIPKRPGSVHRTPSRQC
Summary of the method: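 Intracellular calcium flux was measured by fluorescence (485 nm excitation, 525 nm emission) at 37 °C after automated compound addition following baseline, with final DMSO ≤0.3%. CHO-K1 cells stably expressing human M1R were plated 20–24 h beforehand. Cells were dye-loaded with 2 µM Fluo-4 AM for 1 h in pH 7.4 HEPES/HBSS containing 2.5 mM probenecid.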

GPR139 [3] = molecular target: T1, GPR139; assay: Ca2+ mobilization assay, antagonist mode (EC80 800 nM Lundbeck Cmp 1a after 20 min preincubation), GPR139-CHOk1; settings: individual replicates (Supplementary Figure 4)
Summary of the method: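 Antagonist mode: 800 nM (EC80) reference agonist Lundbeck Cmp 1a added following 20 min pre-incubation with 10 µM compound. GPR139-CHOk1 cells, Fluo-4 dye, probenecid-containing HEPES buffer pH 7.4; intracellular Ca2+ measured at 37 °C (ex 485, em 525 nm).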

[4] = Agonist mode, individual replicates (Supplementary Figure 4)
[5] = log [Compound] M = -4.5, individual replicate columns
[6] = log [Compound] M = -5.0, individual replicate columns
[7] = log [Compound] M = -5.5, individual replicate columns
[8] = log [Compound] M = -6.0, individual replicate columns
[9] = log [Compound] M = -6.5, individual replicate columns
[10] = log [Compound] M = -7.0, individual replicate columns
[11] = log [Compound] M = -7.5, individual replicate columns
[12] = log [Compound] M = -8.0, individual replicate columns
[13] = log [Compound] M = -8.5, individual replicate columns
[14] = log [Compound] M = -9.0, individual replicate columns

Structure (SMILES)	Ca2+ signal (% of Cmp 1a) (GPR139 [1]; [4])	change in potency with larger substituents on the thiophene ring (GPR139 [1])	EC50 (GPR139 [1])	Emax (GPR139 [1])	Ca2+ signal (% of Cmp 1a) (GPR139 [1]; [5])	Ca2+ signal (% of Cmp 1a) (GPR139 [1]; [6])	Ca2+ signal (% of Cmp 1a) (GPR139 [1]; [7])	Ca2+ signal (% of Cmp 1a) (GPR139 [1]; [8])	Ca2+ signal (% of Cmp 1a) (GPR139 [1]; [9])	Ca2+ signal (% of Cmp 1a) (GPR139 [1]; [10])	Ca2+ signal (% of Cmp 1a) (GPR139 [1]; [11])	Ca2+ signal (% of Cmp 1a) (GPR139 [1]; [12])	Ca2+ signal (% of Cmp 1a) (GPR139 [1]; [13])	Ca2+ signal (% of Cmp 1a) (GPR139 [1]; [14])	Ca2+ signal (% of Carbachol) [2]	Ca2+ signal (% of Cmp 1a) (GPR139 [3])
CCc1ccc(-c2nc(CC(=O)NC(C)c3ccccc3)no2)s1 (centres unmarked) [Compound 1.12, CCC1=CC=C(C2=NC(CC(NC(C3=CC=CC=C3)C)=O)=NO2)S1]	86 % of Cmp 1a and 84 % of Cmp 1a and 95 % of Cmp 1a	three-fold reduction to a complete loss of activity	398 nM	93 ± 4%	90 % of Cmp 1a and 89 % of Cmp 1a and 81 % of Cmp 1a and 78 % of Cmp 1a	105 % of Cmp 1a and 80 % of Cmp 1a and 63 % of Cmp 1a and 94 % of Cmp 1a	111 % of Cmp 1a (2×) and 80 % of Cmp 1a and 55 % of Cmp 1a	66 % of Cmp 1a and 61 % of Cmp 1a and 43 % of Cmp 1a and 78 % of Cmp 1a	49 % of Cmp 1a and 48 % of Cmp 1a and 28 % of Cmp 1a and 56 % of Cmp 1a	21 % of Cmp 1a and 33 % of Cmp 1a and 9 % of Cmp 1a and 38 % of Cmp 1a	6 % of Cmp 1a and 10 % of Cmp 1a and 3.55 % of Cmp 1a and 24 % of Cmp 1a	-0.628 % of Cmp 1a and 0.281 % of Cmp 1a and 16 % of Cmp 1a and 5 % of Cmp 1a	-1.24 % of Cmp 1a and 1.81 % of Cmp 1a and 5 % of Cmp 1a and 9 % of Cmp 1a	6.67 % of Cmp 1a and -5 % of Cmp 1a and 1.66 % of Cmp 1a and 6 % of Cmp 1a	8 % of Carbachol and 5.44 % of Carbachol and 4 % of Carbachol	15 % of Cmp 1a and 8 % of Cmp 1a and -3.33 % of Cmp 1a
Cc1ccc(-c2nc(CC(=O)NC(C)c3ccccc3)no2)s1 (centres unmarked) [Compound 1.9, CC(C1=CC=CC=C1)NC(CC2=NOC(C3=CC=C(S3)C)=N2)=O]	88 % of Cmp 1a and 93 % of Cmp 1a and 63 % of Cmp 1a	–	200 nM	86 ± 8%	76 % of Cmp 1a and 96 % of Cmp 1a and 87 % of Cmp 1a and 68 % of Cmp 1a	86 % of Cmp 1a and 100 % of Cmp 1a and 93 % of Cmp 1a and 70 % of Cmp 1a	70 % of Cmp 1a and 105 % of Cmp 1a and 84 % of Cmp 1a and 64 % of Cmp 1a	66 % of Cmp 1a and 73 % of Cmp 1a and 71 % of Cmp 1a and 65 % of Cmp 1a	37 % of Cmp 1a and 55 % of Cmp 1a and 47 % of Cmp 1a and 52 % of Cmp 1a	12 % of Cmp 1a and 23 % of Cmp 1a and 28 % of Cmp 1a and 35 % of Cmp 1a	2.33 % of Cmp 1a and 12 % of Cmp 1a and 15 % of Cmp 1a and 9 % of Cmp 1a	-1.67 % of Cmp 1a (2×) and -4 % of Cmp 1a and 0 % of Cmp 1a	-4.67 % of Cmp 1a and -2 % of Cmp 1a (2×) and 2 % of Cmp 1a	-5 % of Cmp 1a and 7 % of Cmp 1a and -15 % of Cmp 1a and -4.33 % of Cmp 1a	-5 % of Carbachol and 6 % of Carbachol	1.67 % of Cmp 1a and 13 % of Cmp 1a
Cc1cnc2ccc(-c3nc(CC(=O)NC(C)c4ccccc4)no3)cn12 (centres unmarked) [Compound 1.40, CC(NC(=O)CC1=NOC(=N1)C=2C=CC3=NC=C(C)N3C2)C=4C=CC=CC4]	51 % of Cmp 1a and 56 % of Cmp 1a	three-fold reduction to a complete loss of activity	3160 nM	86 ± 7%	93 % of Cmp 1a and 71 % of Cmp 1a and 89 % of Cmp 1a	80 % of Cmp 1a and 64 % of Cmp 1a and 78 % of Cmp 1a	57 % of Cmp 1a and 35 % of Cmp 1a and 53 % of Cmp 1a	32 % of Cmp 1a and 13 % of Cmp 1a and 17 % of Cmp 1a	17 % of Cmp 1a and -10 % of Cmp 1a and -16 % of Cmp 1a	21 % of Cmp 1a and -2.33 % of Cmp 1a and -20 % of Cmp 1a	0 % of Cmp 1a and 1.33 % of Cmp 1a and 22 % of Cmp 1a	11 % of Cmp 1a and 0.667 % of Cmp 1a and 28 % of Cmp 1a	16 % of Cmp 1a and -6.33 % of Cmp 1a and 31 % of Cmp 1a	20 % of Cmp 1a and -7 % of Cmp 1a and 0.667 % of Cmp 1a	-14 % of Carbachol and -5 % of Carbachol and -4.33 % of Carbachol	23 % of Cmp 1a and 31 % of Cmp 1a and 12 % of Cmp 1a
